Laboratory results reported in ChEMBL document CHEMBL5674860, “Optimized Dual-Glo Assay to identify co-culture-induced drug vulnerabilities in 3D CRC models” (2024).

How the values were obtained:
Type in all cases: functional, Homo sapiens
Set-up in all cases: dose or concentration left out as unconfirmed
Colon cancer organoid [1] = assay: Optimized Dual-Glo assay to identify co-culture induced drug vulnerabilities using donated chemical probes and chemogenomics kinase set in O06 CRC organoid and F06 CAF mono and co-culture. […] Cell viability is reported both mono and co-culture models.
Colon cancer organoid [2] = assay: Optimized Dual-Glo assay to identify co-culture induced drug vulnerabilities using donated chemical probes and chemogenomics kinase set in O14 CRC organoid and F14 CAF mono and co-culture. […] Cell viability is reported both mono and co-culture models.
Colon cancer organoid [3] = assay: Optimized Dual-Glo assay to identify co-culture induced drug vulnerabilities using donated chemical probes and chemogenomics kinase set in O20 CRC organoid and F20 CAF mono and co-culture. […] Cell viability is reported both mono and co-culture models.
[4] = Culture type Co-Culture, Transduced with Lucferase2-P2A-EGFP lentivirus
[5] = Culture type Co-Culture, Transduced with Renilla-dsRed lentivirus
[6] = Culture type Mono-Culture, Transduced with Lucferase2-P2A-EGFP lentivirus
[7] = Culture type Mono-Culture, Transduced with Renilla-dsRed lentivirus

Structure (SMILES) | Cell Viability (Colon cancer organoid [1]; [4]) [%] | Cell Viability (Colon cancer organoid [1]; [5]) [%] | Cell Viability (Colon cancer organoid [1]; [6]) [%] | Cell Viability (Colon cancer organoid [1]; [7]) [%] | Cell Viability (Colon cancer organoid [2]; [4]) [%] | Cell Viability (Colon cancer organoid [2]; [5]) [%] | Cell Viability (Colon cancer organoid [2]; [6]) [%] | Cell Viability (Colon cancer organoid [2]; [7]) [%] | Cell Viability (Colon cancer organoid [3]; [4]) [%] | Cell Viability (Colon cancer organoid [3]; [5]) [%] | Cell Viability (Colon cancer organoid [3]; [6]) [%] | Cell Viability (Colon cancer organoid [3]; [7]) [%]
CCOC(=O)c1c(/C(C#N)=C\N)c2ccc(Cl)c(Cl)c2n1C | 122.99 | 97.4073 | 58.62 | 82.6208 | 135.947 | 65.0868 | 144.997 | 76.1592 | 92.1376 | 87.4636 | 163.638 | 89.5418
CNc1nc(-c2ccc3c(N)n[nH]c3c2)cc(N2C[C@@H](C(=O)NC3CCCCC3)CC[C@H]2C)n1 | 59.8926 | 53.4401 | 68.2825 | 54.6916 | 75.802 | 81.9858 | 103.482 | 52.6977 | 51.6899 | 121.574 | 29.0897 | 81.2947
COc1cc2c(NC3CCN(C(C)C)CC3)nc(N3CCC(F)(F)CC3)nc2cc1OCCCN1CCCC1 | 88.0521 | 104.162 | 44.5913 | 47.5732 | 56.1565 | 72.4133 | 84.8802 | 67.5673 | 136.034 | 132.743 | 70.3827 | 53.0002
CCC(=O)N1CCOc2c(cc(-c3ccc(OC)c(OC)c3)cc2OCC2CCCN(C)C2)C1 (stereo not drawn) | 113.999 | 135.091 | 45.0129 | 100.645 | 85.4363 | 159.816 | 85.7096 | 112.054 | 85.3108 | 123.175 | 108.47 | 90.76
O=C(NCC(=O)N1CCCC1)Nc1ccc2cnccc2c1 | 80.3687 | 124.064 | 84.4387 | 94.1078 | 77.6259 | 126.417 | 75.4606 | 109.537 | 120.858 | 100.064 | 123.325 | 84.2387
C=CC(=O)Nc1cccc(C(=O)Nc2ccc(Nc3cc(-c4[nH]c(SC)nc4C)ccn3)cc2)c1 | 87.3077 | 89.5907 | 92.9694 | 99.3546 | 92.8618 | 104.149 | 127.049 | 88.1867 | 175.75 | 71.728 | 133.783 | 92.5554
Cc1cc2c(cc1N1C(=O)c3cccc4c(CCCO)ccc(c34)C1=O)n(C)c(=O)n2C | 83.3962 | 164.269 | 66.8328 | 103.172 | 46.4165 | 127.225 | 64.4307 | 101.303 | 35.0091 | 231.762 | 20.745 | 97.4451
Cn1cc(CCn2cnc(-c3cnn(C)c3)c2-c2ccc(C#N)cc2)cn1 | 101.212 | 117.261 | 137.811 | 99.9578 | 112.655 | 89.8106 | 89.6485 | 97.1773 | 162.016 | 107.326 | 101.421 | 89.845
CCN(CC)S(=O)(=O)Nc1cccc(-c2ccc3c(NC(=O)C4CC4)n[nH]c3c2)c1 | 95.7035 | 91.2372 | 90.915 | 111.432 | 132.967 | 105.386 | 144.3 | 103.503 | 76.1767 | 136.148 | 110.502 | 120.639
CC(C)C(=O)Nc1n[nH]c2cc(-c3cccc(NS(=O)(=O)C4CC4)c3)ccc12 | 155.711 | 134.333 | 107.561 | 124.696 | 100.589 | 100.218 | 136.967 | 94.5263 | 85.5363 | 102.387 | 113.542 | 124.62
Clc1cc2c(NC3CCCC3)nnc(-c3ccncc3)c2cc1Cl | 131.765 | 133.642 | 39.455 | 87.2375 | 74.2058 | 99.3707 | 72.2513 | 106.405 | 149.301 | 128.6 | 80.485 | 77.3951
O=C(NC[C@H](O)CN1CCc2ccccc2C1)c1ccnc(NC2CCC2)c1 | 33.1368 | 110.399 | 67.3977 | 84.1228 | 29.3409 | 134.373 | 40.919 | 88.6314 | 42.8317 | 143.569 | 53.6752 | 63.4646
CN1C(=O)c2sccc2N(C)c2nc(Nc3ccc(S(N)(=O)=O)cc3)ncc21 | 23.972 | 57.2364 | 18.6697 | 40.4928 | 32.5942 | 86.9407 | 37.7546 | 55.4366 | 36.1991 | 84.1947 | 15.0082 | 80.0783
Cl.O=C([C@@H](Cc1cccc(C(F)(F)F)c1)NS(=O)(=O)c1cc(F)c2c(c1)CCNC2)N1CCCC1 | 84.043 | 115.078 | 78.4722 | 93.27 | 99.1964 | 106.618 | 90.5758 | 109.686 | 152.168 | 150.248 | 145.099 | 80.4285
